Target: Nanoluciferase-BRD9 fusion protein (3×FLAG-NLuc-BRD9) in SYO-1 cells (Homo sapiens (Human), UniProt Q9H8M2)
Assay: SYO1 BRD9 NanoLuc degradation assay
Type: cell-based
Conditions: SYO-1 cells, 6 hours, Table 6A
Outline: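 Degradation read as loss of NLuc signal after 6 h compound exposure (1 μM top final, 3-fold steps, 10 points, duplicates) in SYO-1 cells stably carrying 3×FLAG-NLuc-BRD9. Signal normalised between DMSO-treated cells and cells given 1 μM of a known BRD9 degrader.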

Chain of Nanoluciferase-BRD9 fusion protein (3×FLAG-NLuc-BRD9) in SYO-1 cells (Q9H8M2 whole entry, the tested form may be a part): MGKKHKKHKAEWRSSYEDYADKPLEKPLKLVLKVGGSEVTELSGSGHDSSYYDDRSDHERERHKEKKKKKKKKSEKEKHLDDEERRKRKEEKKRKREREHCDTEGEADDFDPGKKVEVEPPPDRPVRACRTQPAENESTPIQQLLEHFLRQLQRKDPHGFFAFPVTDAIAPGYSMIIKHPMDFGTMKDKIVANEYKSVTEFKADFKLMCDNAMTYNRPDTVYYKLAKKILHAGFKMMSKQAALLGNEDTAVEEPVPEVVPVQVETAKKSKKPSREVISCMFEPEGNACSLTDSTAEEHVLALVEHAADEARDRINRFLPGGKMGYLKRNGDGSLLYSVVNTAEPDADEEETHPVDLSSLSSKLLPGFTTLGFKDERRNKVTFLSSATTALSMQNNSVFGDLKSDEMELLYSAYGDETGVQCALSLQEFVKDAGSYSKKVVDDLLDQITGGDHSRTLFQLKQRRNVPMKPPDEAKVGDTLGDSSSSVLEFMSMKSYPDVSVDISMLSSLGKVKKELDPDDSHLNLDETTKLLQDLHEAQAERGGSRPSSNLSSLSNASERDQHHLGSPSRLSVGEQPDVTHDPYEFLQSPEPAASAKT

Row | SMILES | IC50
1 | COc1cc(-c2cn(C)c(=O)c3c2CCN(C(=O)NCCOCCNc2cccc4c2C(=O)N(C2CCC(=O)NC2=O)C4=O)C3)c(OC)cc1CN(C)C (stereo not shown) [Compound D14, 5-[4-[(dimethylamino)methyl]-2,5-dimethoxyphenyl]-N-[2-(2-[[2-(2,6-dioxopiperidin-3-yl)-1,3-dioxoisoindol-4-yl]amino]ethoxy)ethyl]-7-methyl-8-oxo-3,4-dihydro-1H-2,7-naphthyridine-2-carboxamide formic acid] | > 100 nM
2 | CNC(=O)N1CCc2c(-c3cc(OC)c(CN4CC(NC(=O)CCCCCOc5cccc6c5C(=O)N(C5CCC(=O)NC5=O)C6=O)C4)cc3OC)cn(C)c(=O)c2C1 (stereo not shown) [Compound D15, 5-(4-[[3-(6-[[2-(2,6-Dioxopiperidin-3-yl)-1,3-dioxoisoindol-4-yl]oxy]hexanamido)azetidin-1-yl]methyl]-2,5-dimethoxyphenyl)-N,7-dimethyl-8-oxo-3,4-dihydro-1H-2,7-naphthyridine-2-carboxamide formic acid] | > 100 nM
3 | COc1cc(-c2cn(C)c(=O)c3c2CCN(C(=O)NCCOCCNc2cccc4c2C(=O)N(C2CCC(=O)NC2=O)C4=O)C3)cc(OC)c1CN(C)C (stereo not shown) [Compound D17, 5-[4-[(dimethylamino)methyl]-3,5-dimethoxyphenyl]-N-[2-(2-[[2-(2,6-dioxopiperidin-3-yl)-1,3-dioxoisoindol-4-yl]amino]ethoxy)ethyl]-7-methyl-8-oxo-3,4-dihydro-1H-2,7-naphthyridine-2-carboxamide formic acid] | > 10 nM

Target: BRD9 bromodomain (Homo sapiens (Human), UniProt Q9H8M2)
Assay: BRD9 bromodomain TR-FRET competition binding assay
Conditions: not given
Experimental: Procedure: His-Flag-BRD9 (P133-K239; Swiss Prot Q9H8M2; SEQ ID NO:1 mgsshhhhhhenlyfq/gdykddddkgslevlfqg/[…] […]) was cloned, expressed, purified, and then treated with TEV protease. Cleaved His tag was removed by purification. The binding of a biotinylated small molecule ligand of BRD9 was assessed via the LANCE® TR-FRET platform (PerkinElmer), and the compounds were assayed for inhibitory activity against this interaction.
Results: A mixture of biotinylated-ligand and SureLight™ Allophycocyanin-Streptavidin (APC-SA, PerkinElmer AD0201) in 50 mM HEPES (pH 7.4), 50 mM NaCl, 1 mM TCEP (pH 7), 0.01% (v/v) Tween-20, 0.01% (w/v) bovine serum albumin was added to a white 384-well PerkinElmer Proxiplate Plus plate. DMSO or 3-fold serially diluted compounds were then added to the Proxiplate followed by addition of Flag-BRD9. After a 10-minute incubation at room temperature, Eu—W1024 anti-FLAG (PerkinElmer, AD0273) was added. The final reaction mixture that contained 3.75 nM biotinylated ligand, 3 nM Flag-BRD9, 7.5 nM SureLight™ Allophycocyanin-Streptavidin, and 0.2 nM Eu—W1024 anti-FLAG was incubated at room temperature for 90 minutes.
The plates were then read on a PerkinElmer Envision plate reader to determine the ratio of emission at 665 nm over 615 nm. […]

Chain of BRD9 bromodomain (Q9H8M2 133-239): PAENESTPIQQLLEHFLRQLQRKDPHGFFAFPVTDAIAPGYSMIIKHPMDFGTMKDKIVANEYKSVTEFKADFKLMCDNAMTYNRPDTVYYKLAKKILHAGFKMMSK

Row | SMILES | IC50
4 | COc1cc(-c2cn(C)c(=O)c3c2CCN(C(=O)NC2CC2)C3)cc(OC)c1CN(C)C [Compound B8, N-cyclopropyl-5-(4-((dimethylamino)methyl)-3,5-dimethoxyphenyl)-7-methyl-8-oxo-3,4,7,8-tetrahydro-2,7-naphthyridine-2 (1H)-carboxamide] | > 10 nM
5 | CNC(=O)N1CCc2c(-c3cc(OC)c(CN(C)C)c(OC)c3)cn(C)c(=O)c2C1 [Compound B9, 5-(4-((dimethylamino)methyl)-3,5-dimethoxyphenyl)-N,7-dimethyl-8-oxo-3,4,7,8-tetrahydro-2,7-naphthyridine-2 (1H)-carboxamide] | < 10 nM
6 | COc1cc(-c2cn(C)c(=O)c3c2CCN(CCO)C3)cc(OC)c1CN(C)C [Compound B10, 4-[4-[(dimethylamino)methyl]-3,5-dimethoxyphenyl]-7-(2-hydroxyethyl)-2-methyl-1,2,5,6,7,8-hexahydro-2,7-naphthyridin-1-one] | > 1000 nM
7 | CCOC(=O)N1CCc2c(-c3cc(OC)c(CN(C)C)c(OC)c3)cn(C)c(=O)c2C1 [Compound B11, ethyl 5-[4-[(dimethylamino)methyl]-3,5-dimethoxyphenyl]-7-methyl-8-oxo-1,2,3,4,7,8-hexahydro-2,7-naphthyridine-2-carboxylate] | > 1000 nM
8 | CCC(=O)N1CCc2c(-c3cc(OC)c(CN(C)C)c(OC)c3)cn(C)c(=O)c2C1 [Compound B12] | > 1000 nM
9 | COc1cc(-c2cn(C)c(=O)c3c2CCN(C(N)=O)C3)cc(OC)c1CN(C)C [Compound B13, 5-[4-[(dimethylamino)methyl]-3,5-dimethoxyphenyl]-7-methyl-8-oxo-1,2,3,4,7,8-hexahydro-2,7-naphthyridine-2-carboxamide] | > 10 nM
10 | COc1cc(-c2cn(C)c(=O)c3c2CCN(C(C)=O)C3)cc(OC)c1CN(C)C [Compound B14, 7-acetyl-4-[4-[(dimethylamino)methyl]-3,5-dimethoxyphenyl]-2-methyl-1,2,5,6,7,8-hexahydro-2,7-naphthyridin-1-one] | > 1000 nM
11 | CCN1CCc2c(-c3cc(OC)c(CN(C)C)c(OC)c3)cn(C)c(=O)c2C1 [Compound B15, 4-[4-[(dimethylamino)methyl]-3,5-dimethoxyphenyl]-7-ethyl-2-methyl-1,2,5,6,7,8-hexahydro-2,7-naphthyridin-1-one formic acid] | > 1000 nM
12 | COc1cc(-c2cn(C)c(=O)c3c2CCN(C)C3)cc(OC)c1CN(C)C [Compound B16, 4-[4-[(dimethylamino)methyl]-3,5-dimethoxyphenyl]-2,7-dimethyl-1,2,5,6,7,8-hexahydro-2,7-naphthyridin-1-one formic acid] | > 1000 nM
13 | COc1cc(-c2cn(C)c(=O)c3c2CCNC3)cc(OC)c1CN(C)C [Compound B17, 4-[4-[(dimethylamino)methyl]-3,5-dimethoxyphenyl]-2-methyl-1,2,5,6,7,8-hexahydro-2,7-naphthyridin-1-one] | > 1000 nM
14 | CNC(=O)N1CCc2c(c(-c3cc(OC)c(CN(C)C)c(OC)c3)cn(C)c2=O)C1 [Compound B18, 8-[4-[(dimethylamino)methyl]-3,5-dimethoxyphenyl]-N,6-dimethyl-5-oxo-3,4-dihydro-1H-2,6-naphthyridine-2-carboxamide] | > 10 nM
15 | CCCCNS(=O)(=O)N1CCc2c(-c3cc(OC)c(CN(C)C)c(OC)c3)cn(C)c(=O)c2C1 [Compound B19, N-butyl-5-{4-[(dimethylamino)methyl]-3,5-dimethoxyphenyl}-7-methyl-8-oxo-1,2,3,4,7,8-hexahydro-2,7-naphthyridine-2-sulfonamide] | > 10 nM
16 | CCCCNC(=S)N1CCc2c(-c3cc(OC)c(CN(C)C)c(OC)c3)cn(C)c(=O)c2C1 [Compound B20, N-butyl-5-(4-((dimethylamino)methyl)-3,5-dimethoxyphenyl)-7-methyl-8-oxo-3,4,7,8-tetrahydro-2,7-naphthyridine-2 (1H)-carbothioamide] | > 10 nM
17 | COc1cc(-c2cn(C)c(=O)c3c2CN(C(=O)N(C)C)CC3)cc(OC)c1CN(C)C [Compound B21, 8-[4-[(dimethylamino)methyl]-3,5-dimethoxyphenyl]-N,N,6-trimethyl-5-oxo-3,4-dihydro-1H-2,6-naphthyridine-2-carboxamide] | > 100 nM
18 | COc1cc(-c2cn(C)c(=O)c3c2CCN(C(=O)NCCOCCNc2cccc4c2C(=O)N(C2CCC(=O)NC2=O)C4=O)C3)c(OC)cc1CN(C)C (stereo not shown) [Compound D14, 5-[4-[(dimethylamino)methyl]-2,5-dimethoxyphenyl]-N-[2-(2-[[2-(2,6-dioxopiperidin-3-yl)-1,3-dioxoisoindol-4-yl]amino]ethoxy)ethyl]-7-methyl-8-oxo-3,4-dihydro-1H-2,7-naphthyridine-2-carboxamide formic acid] | > 10 nM

Further lines, results first:

Row | IC50 | SMILES
19 | > 10 nM | CNC(=O)N1CCc2c(-c3cc(OC)c(CN4CC(NC(=O)CCCCCOc5cccc6c5C(=O)N(C5CCC(=O)NC5=O)C6=O)C4)cc3OC)cn(C)c(=O)c2C1 (stereo not shown) [Compound D15, 5-(4-[[3-(6-[[2-(2,6-Dioxopiperidin-3-yl)-1,3-dioxoisoindol-4-yl]oxy]hexanamido)azetidin-1-yl]methyl]-2,5-dimethoxyphenyl)-N,7-dimethyl-8-oxo-3,4-dihydro-1H-2,7-naphthyridine-2-carboxamide formic acid]
20 | > 10 nM | COc1cc(-c2cn(C)c(=O)c3c2CCN(C(=O)NCCOCCNc2cccc4c2C(=O)N(C2CCC(=O)NC2=O)C4=O)C3)cc(OC)c1CN(C)C (stereo not shown) [Compound D17, 5-[4-[(dimethylamino)methyl]-3,5-dimethoxyphenyl]-N-[2-(2-[[2-(2,6-dioxopiperidin-3-yl)-1,3-dioxoisoindol-4-yl]amino]ethoxy)ethyl]-7-methyl-8-oxo-3,4-dihydro-1H-2,7-naphthyridine-2-carboxamide formic acid]
21 | < 10 nM | COc1cc(-c2cn(C)c(=O)c3c2CCN(C(=O)NC2CCN(CCOc4ccc5c(c4)C(=O)N(C4CCC(=O)NC4=O)C5=O)CC2)C3)cc(OC)c1CN(C)C (stereo not shown) [Compound D26, 5-[4-[(dimethylamino)methyl]-3,5-dimethoxyphenyl]-N-[1-(2-[[2-(2,6-dioxopiperidin-3-yl)-1,3-dioxoisoindol-5-yl]oxy]ethyl)piperidin-4-yl]-7-methyl-8-oxo-3,4-dihydro-1H-2,7-naphthyridine-2-carboxamide formic acid]
22 | > 100 nM | COc1cc(-c2cn(C)c(=O)c3c2CN(C(=O)NCCOCCNc2cccc4c2C(=O)N(C2CCC(=O)NC2=O)C4=O)CC3)cc(OC)c1CN(C)C (stereo not shown) [Compound D27, 8-[4-[(dimethylamino)methyl]-3,5-dimethoxyphenyl]-N-[2-(2-[[2-(2,6-dioxopiperidin-3-yl)-1,3-dioxoisoindol-4-yl]amino]ethoxy)ethyl]-6-methyl-5-oxo-3,4-dihydro-1H-2,6-naphthyridine-2-carboxamide formic acid]
23 | > 10 nM | COc1cc(-c2cn(C)c(=O)c3c2CCN(C(=O)NCCOCCOCC(=O)N[C@H](C(=O)N2C[C@H](O)C[C@H]2C(=O)NCc2ccc(-c4scnc4C)cc2)C(C)(C)C)C3)cc(OC)c1CN(C)C [Compound D34, (2S,4R)-1-[(2S)-2-(2-[2-[2-(5-[4-[(dimethylamino)methyl]-3,5-dimethoxyphenyl]-7-methyl-8-oxo-3,4-dihydro-1H-2,7-naphthyridine-2-carbonylamino)ethoxy]ethoxy]acetamido)-3,3-dimethylbutanoyl]-4-hydroxy-N-[[4-(4-methyl-1,3-thiazol-5-yl)phenyl]methyl]pyrrolidine-2-carboxamide formic acid]
24 | > 10 nM | COc1cc(-c2cn(C)c(=O)c3c2CCN(C(=O)NCCOCCOCCOCC(=O)N[C@@H](C(=O)N2C[C@@H](O)C[C@@H]2C(=O)NCc2ccc(-c4scnc4C)cc2)C(C)(C)C)C3)cc(OC)c1CN(C)C [Compound D35, (2R,4S)-1-[(2R)-2-[2-(2-[2-[2-(5-[4-[(dimethylamino)methyl]-3,5-dimethoxyphenyl]-7-methyl-8-oxo-3,4-dihydro-1H-2,7-naphthyridine-2-carbonylamino)ethoxy]ethoxy]ethoxy)acetamido]-3,3-dimethylbutanoyl]-4-hydroxy-N-[[4-(4-methyl-1,3-thiazol-5-yl)phenyl]methyl]pyrrolidine-2-carboxamide]
25 | > 10 nM | COc1cc(-c2cn(C)c(=O)c3c2CCN(C(=O)NCCCCCC(=O)N[C@H](C(=O)N2C[C@H](O)C[C@H]2C(=O)NCc2ccc(-c4scnc4C)cc2)C(C)(C)C)C3)cc(OC)c1CN(C)C [Compound D36, (2S,4R)-1-[(2S)-2-[6-(5-[4-[(dimethylamino)methyl]-3,5-dimethoxyphenyl]-7-methyl-8-oxo-3,4-dihydro-1H-2,7-naphthyridine-2-carbonylamino)hexanamido]-3,3-dimethylbutanoyl]-4-hydroxy-N-[[4-(4-methyl-1,3-thiazol-5-yl)phenyl]methyl]pyrrolidine-2-carboxamide]

From patent US12384776B2, “Compounds and uses thereof” (Foghorn Therapeutics Inc., priority 2019, dated 2025)
